According to publication PMC3489029 (Journal of the American Chemical Society, 2012):

Tests used:
[1] = target: cell wall binding domain of the endolysin PlyL (Bacillus anthracis, UniProt A0A6H3AMF3); assay: biochemical; set-up: species or system Bacillus anthracis bacteriophage
[2] = target: cell wall binding domain of the endolysin PlyG (Bacillus phage Gamma, UniProt Q8LTE6); assay: biochemical; set-up: species or system Bacillus anthracis bacteriophage
cell wall binding domain of the endolysin PlyG, sequence (Q8LTE6 166-233 limits assumed): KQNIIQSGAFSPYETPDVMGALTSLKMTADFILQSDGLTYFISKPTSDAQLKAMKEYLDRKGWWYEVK

cell wall binding domain of the endolysin PlyL, sequence (A0A6H3AMF3 160-234 limits assumed): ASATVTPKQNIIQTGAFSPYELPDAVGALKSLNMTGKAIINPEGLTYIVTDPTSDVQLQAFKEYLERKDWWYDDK

SMILES | Kd [1] | fold reduced affinity compared to tetrasaccharide 3 [1] | Kd [2] | binding to PlyL in words [1]
CC(=O)N[C@@H]1[C@H](O[C@H]2[C@H](O[C@H]3O[C@H](CO)[C@H](O)[C@H](O)[C@H]3O)[C@@H](NC(C)=O)[C@H](OCCCCCN)O[C@@H]2CO)O[C@H](CO)[C@@H](O[C@H]2O[C@H](CO)[C@@H](O[C@@H]3O[C@H](CO)[C@H](O)[C@H](O)[C@H]3O)[C@H](O[C@H]3O[C@H](CO)[C@H](O)[C@H](O)[C@H]3O)[C@H]2NC(C)=O)[C@@H]1O [Compound 1] | 23 ± 2 µM | 10 fold | 23.3 ± 0.5 µM | –
CC(=O)N[C@@H]1[C@H](O[C@H]2[C@H](O)[C@@H](NC(C)=O)[C@H](OCCCCCN)O[C@@H]2CO)O[C@H](CO)[C@@H](O[C@H]2O[C@H](CO)[C@@H](O)[C@H](O)[C@H]2NC(C)=O)[C@@H]1O [Compound 2] | 13.5 µM | – | 8.6 ± 0.4 µM | –
CC(=O)N[C@@H]1[C@H](O[C@H]2[C@H](O)[C@@H](NC(C)=O)[C@H](OCCCCCN)O[C@@H]2CO)O[C@H](CO)[C@@H](O[C@H]2O[C@H](CO)[C@@H](O[C@@H]3O[C@H](CO)[C@H](O)[C@H](O)[C@H]3O)[C@H](O)[C@H]2NC(C)=O)[C@@H]1O [Compound 3] | 1.1 µM | – | 2.1 ± 1.1 µM | exceptional high affinity
CC(=O)N[C@@H]1[C@H](O[C@H]2[C@H](O)[C@@H](NC(C)=O)[C@H](OCCCCCN)O[C@@H]2CO)O[C@H](CO)[C@@H](O[C@H]2O[C@H](CO)[C@@H](O)[C@H](O[C@H]3O[C@H](CO)[C@H](O)[C@H](O)[C@H]3O)[C@H]2NC(C)=O)[C@@H]1O [Compound 4] | 153 ± 10 µM | – | 136 ± 7 µM | complexed poorly with the protein
CC(=O)N[C@@H]1[C@H](O[C@H]2[C@H](O[C@H]3O[C@H](CO)[C@H](O)[C@H](O)[C@H]3O)[C@@H](NC(C)=O)[C@H](OCCCCCN)O[C@@H]2CO)O[C@H](CO)[C@@H](O[C@H]2O[C@H](CO)[C@@H](O)[C@H](O)[C@H]2NC(C)=O)[C@@H]1O [Compound 5] | 6.2 ± 2 µM | – | 4.1 ± 0.5 µM | –
CC(=O)N[C@@H]1[C@H](O[C@H]2[C@H](O)[C@@H](NC(C)=O)[C@H](OCCCCCN)O[C@@H]2CO)O[C@H](CO)[C@@H](O)[C@@H]1O [Compound 6] | 110 ± 9 µM | – | 49 ± 2 µM | –
CC(=O)N[C@@H]1[C@H](O[C@H]2[C@H](O)[C@@H](NC(C)=O)[C@H](OCCCCCN)O[C@@H]2CO)O[C@H](CO)[C@@H](O[C@H]2O[C@H](CO)[C@H](O)[C@H](O)[C@H]2NC(C)=O)[C@@H]1O [Compound 7] | 43 ± 11 µM | – | 19.5 ± 7.5 µM | –
